In US11584763B2, “Chromenopyridine derivatives as phosphatidylinositol phosphate kinase inhibitors” (HIBERCELL, INC., priority 2017, dated 2023):

Columns and labels:
Assay type in all cases: biochemical
PIP4K 2A [1] = biological target: T1, PIP4K 2A (Homo sapiens, UniProt P48426); experiment: Kinase Assay PIP4K2 A (PIP4KtypeIIA inhibition assay); design: made in house; host or cells: E. coli; conditions: compounds listed under IC50 bin headings
T1 sequence (P48426 1-406): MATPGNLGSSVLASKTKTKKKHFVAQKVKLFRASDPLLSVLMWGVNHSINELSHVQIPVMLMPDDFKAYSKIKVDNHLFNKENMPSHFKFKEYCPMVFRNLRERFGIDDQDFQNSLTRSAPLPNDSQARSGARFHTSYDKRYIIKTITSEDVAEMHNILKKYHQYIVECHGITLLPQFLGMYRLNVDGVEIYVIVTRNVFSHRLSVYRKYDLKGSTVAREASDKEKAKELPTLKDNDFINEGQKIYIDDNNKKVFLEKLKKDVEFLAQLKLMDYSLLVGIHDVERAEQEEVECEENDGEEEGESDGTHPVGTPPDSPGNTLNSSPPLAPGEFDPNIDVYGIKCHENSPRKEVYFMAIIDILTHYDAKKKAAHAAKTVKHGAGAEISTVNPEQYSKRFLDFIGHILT
Method in brief: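 GST-tagged enzyme from E. coli at 0.5 nM final was preincubated with compound for 1 h at 27 C, then reacted with 10 uM ATP, 80 uM PI5P and DOPE carrier in 50 mM HEPES pH 7.3, 5% DMSO. After 1 h, ADP was measured by ADP-Glo luminescence against a calibration curve. IC50 was fitted from % residual activity.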

PIP4K 2A [2] = biological target: T1, PIP4K 2A; experiment: ADP-glo kinase assay PIP4K 2A; design: 4 nM PIP4K2A (full length protein, SignalChem); purchased SignalChem; conditions: compounds listed under IC50 bin headings
Method in brief: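 Inhibition was calculated versus DMSO controls from ADP-Glo luminescence and fitted to IC50 over a 10-point, threefold series. Compound was first pre-incubated 15 min at room temperature with PIP4K2A (full-length; 4 nM in the enzyme/substrate mix) and PI(5)P diC8 (100 μM in that mix). The reaction then ran for 1 h after adding 60 μM ATP solution, in MOPS pH 7.2/MgCl2/Tween buffer.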

PIP4K2B = biological target: T2, PIP4K2B (Homo sapiens, UniProt P78356); experiment: Trans-FI P kinase assay PIP4K2B (PIP4KtypeIIB inhibition assay); conditions: compounds listed under IC50 bin headings; 100 uM GTP; read-out: Trans-FI P kinase assays: PIP4K2B IC50
T2 construct: made in house; host or cells: E. coli
T2 sequence (P78356 1-416): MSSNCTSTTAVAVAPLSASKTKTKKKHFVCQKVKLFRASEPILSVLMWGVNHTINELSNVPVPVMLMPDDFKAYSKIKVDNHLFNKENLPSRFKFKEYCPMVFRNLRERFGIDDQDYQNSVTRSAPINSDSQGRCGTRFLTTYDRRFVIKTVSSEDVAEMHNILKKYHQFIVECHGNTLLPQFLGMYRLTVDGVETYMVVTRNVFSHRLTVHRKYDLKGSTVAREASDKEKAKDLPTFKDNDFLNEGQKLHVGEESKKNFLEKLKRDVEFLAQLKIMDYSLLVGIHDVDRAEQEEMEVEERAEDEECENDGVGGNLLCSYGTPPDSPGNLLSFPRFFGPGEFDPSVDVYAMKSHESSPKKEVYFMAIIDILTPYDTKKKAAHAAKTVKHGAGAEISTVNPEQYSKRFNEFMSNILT
Method in brief: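 Transcreener FI fluorescence read-out of GDP formed by E. coli-expressed GST-PIP4K2B (5 nM) using 100 uM GTP and 80 uM PI5P with DOPE carrier lipid, pH 7.3, 2 h reaction. Compounds (up to 4.8 uM) were preincubated with enzyme 1 h at 27 C; IC50 fitted from residual activity relative to no-inhibitor control.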

Structure (SMILES) | IC50 (PIP4K 2A [1]) [µM] | IC50 (PIP4K 2A [2]) [µM] | IC50 (PIP4K2B) [µM]
COc1ncc(Nc2cc3c(cn2)-c2ccc(N4CCCC4=O)cc2OC3C)cc1N(C)C(C)=O (stereo not drawn) [Example 89, N-(2-methoxy-5-((5-methyl-8-(2-oxopyrrolidin-1-yl)-5H-chromeno[4,3-c]pyridin-3-yl)amino)pyridin-3-yl)-N-methylacetamide] | 0.1 to 1 | 0.1 to 1 | > 1
COc1ncc(Nc2cc3c(cn2)-c2ccc(N4CCCC4=O)cc2OC3C)cc1NC(C)=O (stereo not drawn) [Example 87, N-(2-methoxy-5-((5-methyl-8-(2-oxopyrrolidin-1-yl)-5H-chromeno[4,3-c]pyridin-3-yl)amino)pyridin-3-yl)acetamide] | 0.001 to 0.01 | 0.001 to 0.01 | 0.01 to 0.1
CC1Oc2cc(N3CCCC3=O)ccc2-c2cnc(Nc3cncc(Nc4cccnn4)c3)cc21 (stereo not drawn) [Example 131, 1-(5-methyl-3-((5-(pyridazin-3-ylamino)pyridin-3-yl)amino)-5H-chromeno[4,3-c]pyridin-8-yl)pyrrolidin-2-one] | ≤ 0.001 | 0.001 to 0.01 | 0.01 to 0.1
CC1Oc2cc(N3CCCC3=O)ccc2-c2cnc(Nc3ccnnc3)cc21 (stereo not drawn) [Example 127, 1-(5-methyl-3-(pyridazin-4-ylamino)-5H-chromeno[4,3-c]pyridin-8-yl)pyrrolidin-2-one] | 0.01 to 0.1 | 0.1 to 1 | > 1
CC1Oc2cc(N3CCCC3=O)ccc2-c2cnc(Nc3cncc(N4CCCC4=O)c3)cc21 (stereo not drawn) [Example 54, 1-(5-methyl-3-((5-(2-oxopyrrolidin-1-yl)pyridin-3-yl)amino)-5H-chromeno[4,3-c]pyridin-8-yl)pyrrolidin-2-one] | ≤ 0.001 | 0.001 to 0.01 | 0.01 to 0.1
CC1Oc2cc(N3CCCC3=O)ccc2-c2cnc(Nc3cncc(N4CCN(C)C4=O)c3)cc21 (stereo not drawn) [Example 53, 1-methyl-3-(5-((5-methyl-8-(2-oxopyrrolidin-1-yl)-5H-chromeno[4,3-c]pyridin-3-yl)amino)pyridin-3-yl)imidazolidin-2-one] | ≤ 0.001 | 0.001 to 0.01 | 0.01 to 0.1
CC1Oc2cc(N3CCCC3=O)ccc2-c2cnc(Nc3cnc4scnc4c3)cc21 (stereo not drawn) [Example 65, 1-(5-methyl-3-(thiazolo[5,4-b]pyridin-6-ylamino)-5H-chromeno[4,3-c]pyridin-8-yl)pyrrolidin-2-one] | 0.001 to 0.01 | 0.01 to 0.1 | 0.1 to 1
CC1Oc2cc(N3CCCC3=O)ccc2-c2cnc(Nc3cnc4c(c3)N(C(=O)C3(O)CC3)CCO4)cc21 (stereo not drawn) [Example 58, 1-(3-((1-(1-hydroxycyclopropane-1-carbonyl)-2,3-dihydro-1H-pyrido[2,3-b][1,4]oxazin-7-yl)amino)-5-methyl-5H-chromeno[4,3-c]pyridin-8-yl)pyrrolidin-2-one] | ≤ 0.001 | ≤ 0.001 | 0.001 to 0.01
CC1Oc2cc(N3CCCC3=O)ccc2-c2cnc(Nc3cncc(N4CCOCC4)c3)cc21 (stereo not drawn) [Example 96, 1-(5-methyl-3-((5-morpholinopyridin-3-yl)amino)-5H-chromeno[4,3-c]pyridin-8-yl)pyrrolidin-2-one] | 0.001 to 0.01 | 0.001 to 0.01 | 0.1 to 1
COCCC(=O)N1CCN(c2cncc(Nc3cc4c(cn3)-c3ccc(N5CCCC5=O)cc3OC4(C)C)c2)CC1 [Example 170, 1-(3-((5-(4-(3-methoxypropanoyl)piperazin-1-yl)pyridin-3-yl)amino)-5,5-dimethyl-5H-chromeno[4,3-c]pyridin-8-yl)pyrrolidin-2-one] | ≤ 0.001 | 0.001 to 0.01 | 0.01 to 0.1
CC(=O)N1CCOc2ncc(Nc3cc4c(cn3)-c3ccc(C(=O)N(C)C)cc3OC4C)cc21 (stereo not drawn) [Example 70, 3-((1-acetyl-2,3-dihydro-1H-pyrido[2,3-b][1,4]oxazin-7-yl)amino)-N,N,5-trimethyl-5H-chromeno[4,3-c]pyridine-8-carboxamide] | ≤ 0.001 | ≤ 0.001 | 0.001 to 0.01
CC1Oc2cc(C(=O)N(C)C)ccc2-c2cnc(Nc3cnc4c(c3)N(S(C)(=O)=O)CCO4)cc21 (stereo not drawn) [Example 71, N,N,5-trimethyl-3-((1-(methylsulfonyl)-2,3-dihydro-1H-pyrido[2,3-b][1,4]oxazin-7-yl)amino)-5H-chromeno[4,3-c]pyridine-8-carboxamide] | ≤ 0.001 | ≤ 0.001 | 0.001 to 0.01

Next, values leading:

IC50 (PIP4K 2A [1]) [µM] | IC50 (PIP4K 2A [2]) [µM] | IC50 (PIP4K2B) [µM] | Structure (SMILES)
≤ 0.001 | 0.001 to 0.01 | 0.01 to 0.1 | CC1Oc2cc(N3CCCC3=O)ccc2-c2cnc(Nc3cnc4c(c3)OCCO4)cc21 (stereo not drawn) [Example 62, 1-(3-((2,3-dihydro-[1,4]dioxino[2,3-b]pyridin-7-yl)amino)-5-methyl-5H-chromeno[4,3-c]pyridin-8-yl)pyrrolidin-2-one]
≤ 0.001 | ≤ 0.001 | 0.001 to 0.01 | CC1Oc2cc(N3CCCC3=O)ccc2-c2cnc(Nc3cnc4c(c3)N(C(=O)CO)CCO4)cc21 (stereo not drawn) [Example 61, 1-(3-((1-(2-hydroxyacetyl)-2,3-dihydro-1H-pyrido[2,3-b][1,4]oxazin-7-yl)amino)-5-methyl-5H-chromeno[4,3-c]pyridin-8-yl)pyrrolidin-2-one]
≤ 0.001 | 0.001 to 0.01 | 0.01 to 0.1 | CC1(C)Oc2cc(N3CCCC3=O)c(F)cc2-c2cnc(Nc3cncc(N4CCNC4=O)c3)cc21 [Example 149, 1-(5-((9-fluoro-5,5-dimethyl-8-(2-oxopyrrolidin-1-yl)-5H-chromeno[4,3-c]pyridin-3-yl)amino)pyridin-3-yl)imidazolidin-2-one]
≤ 0.001 | 0.001 to 0.01 | 0.01 to 0.1 | CC1(C)Oc2cc(N3CCCC3=O)ccc2-c2cnc(Nc3cnc4c(c3)OCCO4)cc21 [Example 164, 1-(3-((2,3-dihydro-[1,4]dioxino[2,3-b]pyridin-7-yl)amino)-5,5-dimethyl-5H-chromeno[4,3-c]pyridin-8-yl)pyrrolidin-2-one]
≤ 0.001 | ≤ 0.001 | 0.001 to 0.01 | CC1Oc2cc(N3CCCC3=O)ccc2-c2cnc(Nc3cnc4c(c3)N3C(=O)CC[C@H]3CO4)cc21 (stereo partly drawn) [Example 40, (6aS)-2-((5-methyl-8-(2-oxopyrrolidin-1-yl)-5H-chromeno[4,3-c]pyridin-3-yl)amino)-6,6a,7,8-tetrahydro-9H-pyrido[2,3-b]pyrrolo[1,2-d][1,4]oxazin-9-one]
0.001 to 0.01 | 0.001 to 0.01 | 0.01 to 0.1 | CC1Oc2cc(N3CCCC3=O)ccc2-c2cnc(Nc3cnc4c(c3)NCCO4)cc21 (stereo not drawn) [Example 94, 1-(3-((2,3-dihydro-1H-pyrido[2,3-b][1,4]oxazin-7-yl)amino)-5-methyl-5H-chromeno[4,3-c]pyridin-8-yl)pyrrolidin-2-one]
≤ 0.001 | ≤ 0.001 | 0.001 to 0.01 | O=C1CCCN1c1ccc2c(c1)OC1(CCC1)c1cc(Nc3cnc4c(c3)N3C(=O)CC[C@H]3CO4)ncc1-2 [Example 195, (S)-2-((8-(2-oxopyrrolidin-1-yl)spiro[chromeno[4,3-c]pyridine-5,1′-cyclobutan]-3-yl)amino)-6,6a,7,8-tetrahydro-9H-pyrido[2,3-b]pyrrolo[1,2-d][1,4]oxazin-9-one]
≤ 0.001 | ≤ 0.001 | 0.001 to 0.01 | CC1(C)Oc2cc(N3CCCC3=O)ccc2-c2cnc(Nc3cnc4c(c3)N3C(=O)CC[C@H]3CO4)cc21 [Example 73, (S)-2-((5,5-dimethyl-8-(2-oxopyrrolidin-1-yl)-5H-chromeno[4,3-c]pyridin-3-yl)amino)-6,6a,7,8-tetrahydro-9H-pyrido[2,3-b]pyrrolo[1,2-d][1,4]oxazin-9-one]
≤ 0.001 | ≤ 0.001 | 0.01 to 0.1 | CC1(C)Oc2cc(N3CCCC3=O)c(F)cc2-c2cnc(Nc3cnc4c(c3)OCCO4)cc21 [Example 167, 1-(3-((2,3-dihydro-[1,4]dioxino[2,3-b]pyridin-7-yl)amino)-9-fluoro-5,5-dimethyl-5H-chromeno[4,3-c]pyridin-8-yl)pyrrolidin-2-one]
